Reference: publication PMC6934184, “Selective DNA-PKcs inhibition extends the therapeutic index of localized radiotherapy and chemotherapy” (The Journal of Clinical Investigation, 2019)

Molecular target: T1, CHEK1 (CHK1) (Homo sapiens, UniProt O14757)
T1 construct: purchased Thermo Fisher Scientific (Life Technologies) SelectScreen
Experiment: SelectScreen Z'LYTE
Type: biochemical
Method in brief: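 Compound tested in SelectScreen activity assays, Z'LYTE for CSF1R, CDK1/cyclin B and MAP2K6 and Adapta for CAMK1. ATP for CAMK1 was listed as 10, and Km app was used for CSF1R. Results are expressed in percent.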

T1 sequence (O14757 whole entry): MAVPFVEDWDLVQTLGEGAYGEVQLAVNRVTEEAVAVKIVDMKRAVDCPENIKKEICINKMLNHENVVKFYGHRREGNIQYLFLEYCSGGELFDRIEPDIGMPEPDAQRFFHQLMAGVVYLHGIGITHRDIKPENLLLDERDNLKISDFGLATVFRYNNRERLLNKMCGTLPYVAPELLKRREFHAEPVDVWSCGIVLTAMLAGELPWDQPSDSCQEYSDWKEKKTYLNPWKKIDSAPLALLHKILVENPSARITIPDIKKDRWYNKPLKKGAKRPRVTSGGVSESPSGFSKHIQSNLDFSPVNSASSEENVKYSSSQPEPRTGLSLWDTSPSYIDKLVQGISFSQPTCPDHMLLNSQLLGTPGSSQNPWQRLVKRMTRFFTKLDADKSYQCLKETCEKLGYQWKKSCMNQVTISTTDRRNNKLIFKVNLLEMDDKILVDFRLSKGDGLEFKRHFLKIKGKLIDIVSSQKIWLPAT

CN(C(=O)CN1CCOCC1)c1ccc2sc3c(-c4cccc5c(=O)cc(N6CC7CCC(C6)O7)oc45)cccc3c2c1 [NU5455]
inhibition at 1 µM: 9.3%
